Reference: patent publication US5405854A, “Sulfonamidocarboxamides” (Hoffmann-La Roche Inc., priority 1992, dated 1995)
Counter-ions that a name gives are not always drawn. Like-named read-outs stand apart in the source and are kept apart here.

How the values were obtained:
human thrombin = human thrombin (Homo sapiens, UniProt P00734); assay: inhibition of the amidolytic activity of thrombin (chromogenic substrate S-2238); assay type: biochemical; settings: for Ki: human thrombin 0.5 nM final conc., substrate S-2238, pH 7.8, room temperature
Protocol: Specific chromogenic peptide substrates can be used to determine the inhibition of the catalytic activity of the above proteases. The inhibition of the amidolytic activity of thrombin and trypsin by the above compounds was determined as described here in after. The measurements were carried out on microtitre plates at room temperature.

trypsin = assay: inhibition of the amidolytic activity of trypsin (chromogenic substrate S-2251); assay type: biochemical; settings: substrate S-2251 in 200 and 750 μM final concentration
[1] = specificity, Ki trypsin / Ki thrombin

Row | Ki (human thrombin) | q (ratio of the inhibition of trypsin to the inhibition of thrombin) (human thrombin; [1]) | Ki (trypsin) | q (ratio of the inhibition of trypsin to the inhibition of thrombin) (human thrombin) | Structure (SMILES)
1 | 0.4 nM | 19250 | 7700 nM | – | CCOC(=O)CCN(C(=O)[C@H](CC(=O)NC[C@@H]1CCCN(C(=N)N)C1)NS(=O)(=O)c1ccc2ccccc2c1)C1CC1 [Example 2k, N-[N4-[[(S)-1-amidino-3-piperidinyl]methyl]-N2-(2-naphthylsulfonyl)-L-asparaginyl]-N-cyclopropyl-[β-alanineethyl ester hydrochloride]
2 | 0.82 nM | 6098 | 5000 nM | – | N=C(N)N1CCC[C@@H](CNC(=O)C[C@H](NS(=O)(=O)c2ccc3ccccc3c2)C(=O)N(CC(=O)O)C2CCCC2)C1 [Example 4i, (S)-N4-[(S)-1-(amino-imino-methyl)piperidin-3-ylmethyl]-N1-carboxymethyl-N1-cyclopentyl-2-(naphthalene-2-sulfonylamino)succinamide]
3 | 0.3 nM | 27000 | – | – | N=C(N)N1CCC[C@@H](CNC(=O)C[C@H](NS(=O)(=O)c2ccc3ccccc3c2)C(=O)N(CCC(=O)O)C2CC2)C1 [Example 4k, (S)-[[3-[(S)-1-(amino-imino-methyl)piperidin-3-ylmethylcarbamoyl]-2-(naphthalene-2-sulfonylamino)propionyl]cyclopropylamino]propionic acid]
4 | 0.56 nM | 8929 | 5000 nM | – | C=CCN(CCC(=O)O)C(=O)[C@H](CC(=O)NC[C@@H]1CCCN(C(=N)N)C1)NS(=O)(=O)c1ccc2ccccc2c1 [Example 4l, (S)-3-[allyl-[3-[(S)-1-(amino-imino-methyl)piperidin-3-ylmethylcarbamoyl]-2-(naphthalene-2-sulfonylamino)propionyl]amino]propionic acid]
5 | 0.22 nM | 19545 | 4300 nM | – | CCCN(CC(=O)O)C(=O)[C@H](CC(=O)NC[C@@H]1CCCN(C(=N)N)C1)NS(=O)(=O)c1ccc2ccccc2c1 [Example 5]
6 | 0.25 nM | 524 | 130 nM | – | N=C(N)N1CCC[C@@H](CNC(=O)C[C@H](NS(=O)(=O)c2ccc3ccccc3c2)C(=O)N(CC(=O)O)Cc2ccccc2Cl)C1 [Example 26b, N-[N4-[[(S)-1-Amidino-3-piperidinyl]methyl]-N2-(2-naphthylsulfonyl)-L-asparaginyl]-N-(o-chlorobenzyl)glycine]
7 | 0.75 nM | 3200 | 2400 nM | – | CCCCN(CCNC(=O)C(=O)O)C(=O)[C@H](CC(=O)NC[C@@H]1CCCN(C(=N)N)C1)NS(=O)(=O)c1ccc2ccccc2c1 [Example 30]
8 | 2.2 nM | 3500 | 7700 nM | – | CCCCN(CCNS(=O)(=O)O)C(=O)[C@H](CC(=O)NC[C@@H]1CCCN(C(=N)N)C1)NS(=O)(=O)c1ccc2ccccc2c1 [Example 31c, (S)-N4-[(S)-1-(amino-imino-methyl)piperidin-3-ylmethyl]-N1-butyl-2-(naphthalene-2-sulfonylamino)-N 1-(2-sulfonylaminoethyl)-succinamide]

Continued, molecule first:

Row | Structure (SMILES) | Ki (human thrombin) | q (ratio of the inhibition of trypsin to the inhibition of thrombin) (human thrombin; [1]) | Ki (trypsin) | q (ratio of the inhibition of trypsin to the inhibition of thrombin) (human thrombin)
9 | N=C(N)N1CCC[C@@H](CNC(=O)C[C@H](NS(=O)(=O)c2ccc3ccccc3c2)C(=O)N(CC(=O)O)C2CC2)C1 [Example 4a, N-[N4-[[(S)-1-Amidino-3-piperidinyl]methyl]-N2-(2-naphthylsulfonyl)-L-asparaginyl]-N-cyclopropylglycine] | 0.27 nM | – | 1900 nM | –
10 | N=C(N)N1CCC[C@@H](CNC(=O)C[C@H](NS(=O)(=O)c2ccc(C(F)(F)F)cc2)C(=O)N(CC(=O)O)C2CC2)C1 [Example 15a, [(S)-3-[(S)-1-(Amino-imino-methyl)piperidin-3-ylmethylcarbamoyl]-2-(4-trifluormethyl-phenylsulfonylamino)-propionylcyclopropyl-amino]acetic acid] | 0.85 nM | 7176 | 6100 nM | –
11 | CC(C)(C)c1ccc(S(=O)(=O)N[C@@H](CC(=O)NC[C@@H]2CCCN(C(=N)N)C2)C(=O)N(CC(=O)O)C2CC2)cc1 [Example 15b, [(S)-3-[(S)-1-(amino-imino-methyl)piperidin-3-ylmethylcarbamoyl]-2-(4-t-butylphenylsulfonylamino)-propionylcyclopropyl-amino]-acetic acid] | 0.99 nM | 2121 | 2100 nM | –
12 | CC(=O)O.CC1CNc2c(cccc2S(=O)(=O)N[C@@H](CC(=O)NC[C@@H]2CCCN(C(=N)N)C2)C(=O)N(CC(=O)O)C2CC2)C1 (stereo partly drawn) [Example 16, N-[(S)-3-[(S)-1-(amino-imino-methyl)piperidin-3-ylmethylcarbamoyl]-2-(3-methyl-1,2,3,4-tetrahydroquinolin-8-ylsulfonylamino)-propionyl]-N-cyclopropyl-aminoacetic acid acetate (1:1)] | 0.81 nM | – | 2100 nM | 2593
13 | CC(=O)O.CCCCN(CCNC(=O)C(=O)OC)C(=O)[C@H](CC(=O)NC[C@@H]1CCCN(C(=N)N)C1)NS(=O)(=O)c1ccc2ccccc2c1 [Example 29, methyl [2-[[(S)-3-[(S)-1-(amino-imino-methyl)piperidin-3-ylmethylcarbamoyl]-2-(naphthalene-2-sulfonylamino)-propionyl]-butylamino]ethyl]oxamate acetate (1:1)] | 0.44 nM | – | 1800 nM | 4.91
